The values below come from a melting point compilation (Tetko et al.; mined from patent text by program, amines drawn as free bases though some values may be those of a salt).

What is called melting point is the temperature, or range, at which the solid turns liquid. In turn, `CN1CCN(CCc2[nH]c(=O)[nH]c2-c2ccc(F)cc2)CC1` had a melting point of 237 to 239 °C. For `OC1Cc2cc(F)c(F)cc2C1` the value was 57 to 58 °C; for `Cc1nnc(C=Cc2ccccc2O)s1`, 253 to 254 °C; for `COc1cccc(-c2cc(C(=O)NCCCCCCCCc3ccccc3)cc(-c3cccc(OC)c3OCC(=O)O)c2)c1`, 67.3 to 68.7 °C. In turn, `COc1ccc(C(=O)O)c(Cl)c1Cl` gave a melting point of 224 to 226 °C. For `CS(=O)c1ccc(-c2nc3ncccc3[nH]2)cc1` (stereo not given), the melting point lay in the range of 240 to 242 °C. Turning to `Cc1ncn(-c2ccccc2C#N)n1`, the melting point was 109 to 110 °C. For `O=[N+]([O-])c1cccc2ccc3c(c12)C(CCl)CN3` (stereo not given) the value was 100 °C; for `CCCCCCON=C(C(=O)OCC)c1csc(N)n1`, 77 to 78 °C.

In the case of `CCOC(=O)C1=C(COCc2nnnn2CCNc2nc(N)n[nH]2)NC(C)=C(C(=O)OC)C1c1cccc(Cl)c1Cl` (stereo not given), the melting point amounted to 70 °C. For `CS(=O)(=O)c1ccc(-c2cnn(CC(F)(F)F)c(=O)c2C2CCCCC2)cc1` the value was 215 to 218 °C. For `CC(=NO)C(C)(C)NCC(F)(F)CNC(C)(C)C(CCn1ccnc1[N+](=O)[O-])=NO` the value was 90 to 92 °C. For `O=C(Nc1ccc(CCCCn2ccnn2)cc1)c1coc(C=Cc2ccc(C(F)(F)F)cc2)n1` the value was 183 to 185 °C; for `CC=Cc1c(-c2ccc(C(C)(C)C)cc2)[nH]c2nccnc12`, 207 to 208 °C. Take `CC1(C)CCc2c(N3CCCC3)nc3sc4c(NCCN5CCOCC5)ncnc4c3c2C1`: the melting point lay within 173 to 174 °C.

Regarding `CC(=O)OC1CCC2(C)C3=C(CCC2C1)C1CCC(C(C)=O)C1(C)CC3=O` (stereo not given), the melting point was in the range of 169 to 172 °C.

As for `CC1=C(c2ccc(C(=O)O)cc2)CCCC1`, the melting point fell in the range of 176 to 178 °C. As to `CCC(=O)c1cc(-c2ccccc2)no1`, the melting point was in the range of 111 to 112 °C. The compound `COc1ccc(NC(=O)N(O)C2CCCCCCC2)cc1` had a melting point of 166 to 167 °C.

As to `CCCCCCCCCc1cc(C(=O)O)n[nH]1`, the melting point was in the range of 147 to 149 °C. Turning to `COc1ccc(C=C[N+](=O)[O-])cc1OC1CCCC1`, the melting point was 133 to 134 °C. Compound `CCc1c2nc(-c3cc(S(C)(=O)=O)ccc3OCC(C)C)[nH]c(=O)c2nn1C1CCN(C)CC1` displayed a melting point of 292 to 295 °C. As for `CCCN(Cc1ccc(-c2ccccc2-c2nnnn2C(c2ccccc2)(c2ccccc2)c2ccccc2)cc1)c1ncccc1C(=O)OCC`, the melting point lay in the range of 129 to 131 °C. For the compound `O=C(Nc1cccnn1)N1CCN(c2nccc(-c3cccc(F)c3F)n2)CC1`, the melting point lay within 248 to 249 °C. Consider `COCc1nc2c(N)nc3cc(CCCNS(C)(=O)=O)ccc3c2n1CC(C)(C)O`, for which the melting point lay within 205 to 207 °C. For `COCOc1ccc2cc(Br)ccc2c1`, the melting point lay in the range of 46.8 to 49.2 °C.

`O=C(O)C1CCc2c(-c3ccc(Cl)cc3)noc2C1` (stereo not given): the melting point is 227 to 228 °C. The compound `O=c1[nH]c2cc(Cl)ccc2c(NCc2ccccc2)c1-c1ccccc1` showed a melting point of 179 °C. With `N#CN1CCN(c2nn(S(=O)(=O)c3ccccc3)c3cc(F)ccc23)CC1`, the melting point lay in the range of 178 to 180 °C.

`COC(=O)CCCCCS(=O)c1ccc(-c2ccc(Cl)cc2)cc1` (stereo not given): the melting point was in the range of 64 to 65 °C.

In the case of `CC1(C)COC(C(=O)O)OC1`, the melting point lay in the range of 58 to 60 °C. For `Cc1cc(C)c(CC(=O)NNC(=O)OC(C)(C)C)c(C)c1`, the melting point was 138 to 140 °C. For `Cc1cc(I)ccc1Nc1c(C2=NC(C)(C)CO2)ccc(F)c1F` the value was 104 °C; for `CNCCOc1cccc2c1CC(=O)N2`, 153 to 156 °C; for `O=C(O)c1cn(Cc2cnsn2)c2cc(F)c(F)cc2c1=O`, 278 to 282 °C. For `O=c1c2cncc3cccc(c32)n2c([N+](=O)[O-])ccc12` the value was 192 °C. The result for `COc1ccc2cc(C(C)C(=O)OCC(=O)OCCO)ccc2c1` (stereo not given) reads 87 to 90 °C; that for `ClCc1nnnn1C1CCCCC1`, 101 to 104 °C; that for `O=c1c2ccccc2nc(-c2sc(Nc3ccc(Cl)cc3)nc2-c2ccccc2)n1-c1ccccc1`, over 275 °C.

`O=C1CCC(c2cccc(F)c2)(c2cccc(F)c2)[C@@H]2CN(Cc3ccccc3)C[C@H]12` (racemic): the melting point came to 124 °C.

Compound `C[Si](C)(C)c1sc(C=O)cc1Oc1ccccc1` showed a melting point of 120 to 122 °C. As to `O=C(C=Cc1ccncc1)C=Cc1ccncc1`, the melting point was in the range of 145 to 146 °C. Turning to `CC(C)(ON1C(=O)c2ccccc2C1=O)C(=O)O`, the melting point lay within 133 to 135 °C. In the case of `N#Cc1cccc(OC(=O)C(=O)Oc2cccc(C#N)c2)c1`, the melting point is 187 to 190 °C.

The compound `O=Cc1cc(O)c2c(c1)C(=O)c1cccc(O)c1C2=O` displayed a melting point of 198 to 200 °C. Take `COC(=O)c1cc2c3ccccc3n(-c3ccccc3)c2s1`: the melting point lay in the range of 147 to 149 °C.

`COCC(=O)OC1(C(=O)CO)CCC2C3CCC4=CC(=O)CCC4(C)C3C(O)CC21C` (stereo not given) yielded a melting point of 185 °C.

With `O=c1[nH]nc(CO)c2ccccc12`, the melting point lay in the range of 199 to 201 °C. As to `C#CC1=Cc2cc(Cl)ccc2Sc2ccc(SC)cc21`, the melting point lay in the range of 100 to 103 °C. For `CC(C)CC(NC(c1ccc(-c2ccc(S(C)(=O)=O)cc2)cc1)C(F)(F)F)C(=O)NCC#N` (stereo not given) the value was 140 °C. In turn, `COc1cc2c(cc1OC)-c1cc(N(c3c(C)cc(C)cc3C)C(C)C)nc(=O)n1CC2` returned a melting point of 182 to 183 °C. Regarding `Nc1ccc2c(c1)CC(NS(=O)(=O)c1ccccc1)C2` (stereo not given), the melting point was 105 to 107 °C.

`Cc1cc2c(-c3ccccc3Cl)c(NC(=O)Nc3cccc(Cl)c3)c(=O)n(C)c2cc1C` gave a melting point of 208 to 210 °C. For `O=C1CC(c2cccc(-n3ccnc3)c2)=Nc2cc(N3C[C@@H](O)[C@@H](O)C3)c(-c3ccc(F)cc3)cc2N1` the value was 244 °C; for `COC(=O)Cc1ccc2nc(C(F)(F)F)cc(O)c2c1`, 192 to 193 °C; for `Cc1cc(C)cc(CN(C)C(=O)C(Cc2c[nH]c3ccccc23)NC(=O)c2ccccc2)c1` (stereo not given), 140 to 142 °C.

Turning to `Cc1ccccc1C1(CNC(=O)Nc2c(C(C)C)cccc2C(C)C)CCCC1`, the melting point fell in the range of 147 to 150 °C. For `O=C(NCC(F)(F)F)c1cccc(CN2CCN(c3ccc(NC(=O)c4ccccc4-c4ccc(C(F)(F)F)cc4)cc3)CC2)c1` the value was 205 to 207 °C; for `CCOC(=O)c1cnn(-c2cc(Cl)cc(Cl)c2)c1SC`, 70 to 72 °C; for `COC(=O)c1cc(Br)cc(Cl)c1NC(C)=O`, 152 to 153 °C. For `CCn1nc(-c2nc(C(N)=O)c(N)nc2-c2ccccc2)ccc1=O` the value was over 250 °C; for `COC(=O)c1cccc(Oc2nn(Cc3ccccc3)c3ccccc23)n1`, 92 to 94 °C; for `CC(C)(NC(N)=O)C(=O)NCCO[N+](=O)[O-]`, 98 to 100 °C.

As to `CCCCCC(=O)c1c(Cn2cncn2)nc2cc(OC)c(OC)cc2c1-c1ccc(OC)c(OC)c1`, the melting point fell in the range of 151 to 152 °C.

In turn, `CN(C)c1ccc(-c2cc(-c3ccccc3)nc(-c3ccccc3)c2)cc1` came in with a melting point of 128 to 129 °C.

For the compound `COc1ccc(N2CCN(c3c(C)c(C)c4c(c3C)C(O)(c3cccs3)C(C)(C)O4)CC2)cc1` (stereo not given), the melting point lay within 154 to 155 °C. As for `CC=Cc1cn(C2CC(O)C(CO)O2)c(=O)[nH]c1=O` (stereo not given), the melting point stood at 178 °C.

`CCOC(=O)c1cc([N+](=O)[O-])c(C)nc1C(=O)OCC` displayed a melting point of 90 to 91.5 °C. The result for `CC1(Cn2c(=O)n(-c3ccccc3)c3ccccc32)Cn2cc([N+](=O)[O-])nc2O1` (stereo not given) reads 234 to 235 °C; that for `Cn1nc(-c2c(F)cccc2Cl)nc1-c1ccc(COc2ccc(C(F)(F)F)cc2Cl)c(Cl)c1`, 113 to 114 °C. `N#Cc1cccc(-c2ccc(=O)n(Cc3cccc(-c4ncc(O)cn4)c3)n2)c1` registered a melting point of 245 to 248 °C. The result for `C1CCC2NC3NC4CCCCC4NC3NC2C1` (stereo not given) reads 148 to 155 °C. In turn, `C#CCN(CC#C)c1cc(OC)c(OC)c(OC)c1` displayed a melting point of 62 to 63 °C. Consider `CCNC(=O)Nc1cn2ccc(-c3c(C)noc3C)cc2n1`, for which the melting point fell in the range of 204 to 206 °C. In the case of `COc1cc(OC)cc(C2(Cl)C(C)(C)C2(C)C)c1`, the melting point is 119 to 121 °C.

Take `OC1CSC(Oc2cccnc2-c2cccnc2)C(O)C1O` (stereo not given): the melting point came out at 80 °C. The compound `O=C1CCC(c2ccccc2)(C2CCNC2)CC1` (stereo not given) yielded a melting point of 75 to 79 °C. Consider `O=C1O[C@@H]2C[C@@]1(O)C[C@H]1OC(c3ccccc3)O[C@@H]21` (stereo not given in full), for which the melting point lay within 96 to 97 °C. For `OC1CSC(Oc2cc(-c3cncnc3)cnc2F)C(O)C1O` (stereo not given) the value was 204 to 205 °C.

The compound `COc1ccc(-c2cc(=Nc3c(C)cc(C)cc3C)n(C)c(N3CCNCC3)n2)cc1OC` gave a melting point of 185 to 189 °C. The compound `CCNC(=O)n1nc(Oc2ccc(F)cc2[N+](=O)[O-])cc1C` returned a melting point of 81 to 84 °C. `CCN(CC)C(C)CN1CCc2c(c(=O)oc3cc(OC)ccc23)C1` (stereo not given) displayed a melting point of 83 to 85 °C.

`Cc1ccc(S(=O)(=O)OCCC2(O)CCc3cc(F)ccc3C2C(C)C)cc1` (stereo not given): the melting point fell in the range of 65 to 67 °C. The result for `CC(=O)Nc1cc(-n2c(=O)cc(C(F)(F)F)[nH]c2=O)c(F)cc1Cl` reads 264 to 266 °C; that for `c1ccc2c(c1)CCc1ccccc1C2=NCC1CC1`, 98 to 99 °C. For `O=C(O)CCc1cn(Cc2ccc(OCc3coc(-c4ccccc4)n3)cc2)cc1-c1ccccc1` the value was 139 to 140 °C; for `CCOC(=O)CN(NC(=O)OC(C)(C)C)C(=O)OCc1ccccc1`, 117 to 119 °C.

Consider `O=C1c2cccc(N(CCO)CCO)c2OC12CC2`, for which the melting point was 74 to 76 °C. For `CNCC1CCN(c2ccc(Cl)cc2NC(=O)c2csc3cncnc23)CC1` the value was 190 to 193 °C. For `CSCC(=O)Nc1cccc(C(F)(F)F)c1` the value was 75 to 77 °C.
